# Assay results reported in patent US10723705B2, “Heterocyclic compounds and uses thereof” (Incyte Corporation, priority 2015, dated 2020).
# Where two headings read alike, the source gives them in different places.
# Molecular target: Human recombinant Histone Deacetylase 8 (HDAC8) (Homo sapiens (Human), UniProt Q9BY41)
# Assay: HDAC8 Enzymatic Assay (HDAC-Glo I/II luminescence)
# Assay type: biochemical
# Procedure: HDAC-Glo™ I/II Assay Kit was purchased from Promega Corporation (Madison, Wis.), including the following components: HDAC-Glo I/II Buffer (25 mM Tris buffer, pH 8.0, supplemented with 137 mM: NaCl, 2.7 mM KCl, 1% v/v Triton X-100 and 1 mM: MgCl2), luminogenic substrates Boc-GAK(Ac)-aminoluciferin (HDAC-Glo I/II substrate), proprietary developer reagent (containing trypsin). Human recombinant Histone Deacetylase 8 (HDAC8) was purchased from Enzo Life Sciences (Plymouth Meeting, Pa.).
# The HDAC8 reaction was performed at room temperature in white 384-well polystyrene, flat-bottom microtiter plate (Greiner Bio-one, Monroe, N.C.) in a final volume of 20 μL. Test compounds were first diluted serially in DMSO and 100 nL were transferred to the plate wells by Echo 550 (Labcyte, Sunnyvale, Calif.) before the addition of other reaction components. The final concentration of DMSO in the assay was 0.5%. The HDAC-Glo I/II assay reagent was prepared by rehydration of lyophilized HDAC-Glo I/II substrate in 10 mL. HDAC-Glo I/II assay buffer followed with the addition of 10 μL of developer reagent. 10 uL of 3 nM HDAC8 in the HDAC-Glo I/II assay buffer were first dispensed into the microliter plate containing the compounds and incubated at room temperature for 30 min. The reactions were initiated with the addition of 10 uL HDAC-Glo I/II assay reagent with Multidrop (Thermo, Waltham, Mass.). The final concentration of HDAC8 and HDAC-Glo I/II substrate in the reaction were 1.5 nM and 50 μM, respectively. The assay plate was mixed for 1 min by orbital shaking (500 rpm) and centrifuged for 1 min at 1500 rpm. After 15 min at room temperature, luminescence signals were measured on TopCount (Perkin Elmer). Wells with no compound served as the positive controls and wells containing no HDAC8 were used as negative controls. IC50 determination was performed by fitting the curve of percentage control activity versus the log of the compound concentration using the GraphPad Prism 6.0 software.
# [1] = class symbols, Table 14, read-out: HDAC8 IC50
# Human recombinant Histone Deacetylase 8 (HDAC8), sequence (Q9BY41 whole entry): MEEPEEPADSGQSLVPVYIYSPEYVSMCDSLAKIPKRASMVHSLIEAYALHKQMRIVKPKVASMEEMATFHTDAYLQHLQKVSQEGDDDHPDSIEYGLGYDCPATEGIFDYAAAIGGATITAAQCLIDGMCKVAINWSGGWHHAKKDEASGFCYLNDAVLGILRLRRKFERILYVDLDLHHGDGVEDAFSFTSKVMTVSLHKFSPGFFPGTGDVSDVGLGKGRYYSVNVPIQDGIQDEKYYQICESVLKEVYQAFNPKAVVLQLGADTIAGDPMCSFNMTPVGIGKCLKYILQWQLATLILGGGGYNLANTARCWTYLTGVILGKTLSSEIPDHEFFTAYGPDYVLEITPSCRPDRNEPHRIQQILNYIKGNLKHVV
SMILES,"IC50 (HDAC8, read-out: IC50) [nM]",IC50 [1] [nM]
"O=C(NO)C(Cc1ccccc1)n1ncc2cc(Cl)ccc21 (centres unmarked) [Compound I-0001, 2-(5-Chloro-1H-indazol-1-yl)-N-hydroxy-3-phenylpropanamide]",141,50 to 200
"O=C(NO)C(Cc1ccccc1)n1cc2ccccc2n1 (centres unmarked) [Compound I-0002, N-hydroxy-2-(2H-indazol-2-yl)-3-phenylpropanamide]",,200 to 500
"O=C(NO)C(Cc1ccccc1)n1cc2cc(Cl)ccc2n1 (centres unmarked) [Compound I-0003, 2-(5-Chloro-2H-indazol-2-yl)-N-hydroxy-3-phenylpropanamide]",338,200 to 500
"O=C(NO)C(Cc1ccccc1)n1cc2ccc(Br)cc2n1 (centres unmarked) [Compound I-0004, 2-(6-bromo-2H-indazol-2-yl)-N-hydroxy-3-phenylpropanamide]",,200 to 500
"O=C(NO)C(Cc1ccccc1)n1nc2ccc(Cl)cc2c1C#CC1CC1 (centres unmarked) [Compound I-0005, 2-[5-Chloro-3-(cyclopropylethynyl)-2H-indazol-2-yl]-N-hydroxy-3-phenylpropanamide]",22,≤ 50
"O=C(NO)C(Cc1ccccc1)n1cc2ccc(-c3ccccc3)cc2n1 (centres unmarked) [Compound I-0006, N-hydroxy-3-phenyl-2-(6-phenyl-2H-indazol-2-yl)propanamide]",,200 to 500
"O=C(NO)C(Cc1ccccc1)n1cc2ccc(-c3cncnc3)cc2n1 (centres unmarked) [Compound I-0007, N-hydroxy-3-phenyl-2-(6-(pyrimidin-5-yl)-2H-indazol-2-yl)propanamide]",,200 to 500
"O=C(NO)C(Cc1ccccc1)n1cc2ccc(-c3cccnc3)cc2n1 (centres unmarked) [Compound I-0008, N-hydroxy-3-phenyl-2-(6-(pyridin-3-yl)-2H-indazol-2-yl)propanamide]",,200 to 500
"O=C(NO)C(Cc1ccccc1)n1nc(C#CC2CC2)c2cc(Cl)ccc21 (centres unmarked) [Compound I-0009, 2-(5-chloro-3-(cyclopropylethynyl)-1H-indazol-1-yl)-N-hydroxy-3-phenylpropanamide]",,50 to 200
"Cn1nccc1-c1ccc2c(cnn2C(Cc2ccccc2)C(=O)NO)c1 (centres unmarked) [Compound I-0010, N-hydroxy-2-(5-(1-methyl-1H-pyrazol-5-yl)-1H-indazol-1-yl)-3-phenylpropanamide]",,50 to 200
"O=C(NO)C(Cc1ccccc1)n1ncc2cc(-c3ccncc3)ccc21 (centres unmarked) [Compound I-0011, N-hydroxy-3-phenyl-2-(5-pyridin-4-yl-1H-indazol-1-yl)propanamide]",87,50 to 200
"O=C(NO)C(Cc1ccccc1)n1ncc2cc(-c3cncnc3)ccc21 (centres unmarked) [Compound I-0012, N-hydroxy-3-phenyl-2-(5-(pyrimidin-5-yl)-1H-indazol-1-yl)propanamide]",,50 to 200
"O=C(NO)C(Cc1ccccc1)n1ncc2cc(-c3ccccc3)ccc21 (centres unmarked) [Compound I-0013, N-hydroxy-3-phenyl-2-(5-phenyl-1H-indazol-1-yl)propanamide]",,200 to 500
"O=C(NO)C(Cc1ccccc1)n1ncc2cc(-c3c(F)cccc3F)ccc21 (centres unmarked) [Compound I-0014, 2-(5-(2,6-difluorophenyl)-1H-indazol-1-yl)-N-hydroxy-3-phenylpropanamide]",,200 to 500
"N#Cc1ccc(-c2ccc3c(cnn3C(Cc3ccccc3)C(=O)NO)c2)cc1 (centres unmarked) [Compound I-0015, 2-(5-(4-cyanophenyl)-1H-indazol-1-yl)-N-hydroxy-3-phenylpropanamide]",,200 to 500
"Cc1ccc2c(cnn2C(Cc2ccccc2)C(=O)NO)c1 (centres unmarked) [Compound I-0016, N-hydroxy-2-(5-methyl-1H-indazol-1-yl)-3-phenylpropanamide]",,50 to 200
"O=C(NO)C(Cc1ccccc1)n1ncc2cc(Br)ccc21 (centres unmarked) [Compound I-0017, 2-(5-bromo-1H-indazol-1-yl)-N-hydroxy-3-phenylpropanamide]",,50 to 200
"CCc1ccc2cnn(C(Cc3ccccc3)C(=O)NO)c2c1 (centres unmarked) [Compound I-0018, 2-(6-Ethyl-1H-indazol-1-yl)-N-hydroxy-3-phenylpropanamide]",443,200 to 500
"O=C(NO)C(Cc1ccccc1)n1ncc2cc(C3CC3)ccc21 (centres unmarked) [Compound I-0019, 2-(5-cyclopropyl-1H-indazol-1-yl)-N-hydroxy-3-phenylpropanamide]",,> 500

SMILES,"IC50 (HDAC8, read-out: IC50) [nM]",IC50 [1] [nM]
"CCc1ccc2c(cnn2C(Cc2ccccc2)C(=O)NO)c1 (centres unmarked) [Compound I-0020, 2-(5-ethyl-1H-indazol-1-yl)-N-hydroxy-3-phenylpropanamide]",,200 to 500
"O=C(NO)C(Cc1ccccc1)n1ncc2ccc(Br)cc21 (centres unmarked) [Compound I-0021, 2-(6-bromo-1H-indazol-1-yl)-N-hydroxy-3-phenylpropanamide]",,> 500
"O=C(NO)C(Cc1ccccc1)n1ncc2ccc(-c3ccccc3)cc21 (centres unmarked) [Compound I-0022, N-hydroxy-3-phenyl-2-(6-phenyl-1H-indazol-1-yl)propanamide]",,> 500
"O=C(NO)C(Cc1ccccc1)n1ncc2ccc(-c3cncnc3)cc21 (centres unmarked) [Compound I-0023, N-hydroxy-3-phenyl-2-(6-(pyrimidin-5-yl)-1H-indazol-1-yl)propanamide]",,> 500
"O=C(NO)C(Cc1ccccc1)n1cc2cc(Br)ccc2n1 (centres unmarked) [Compound I-0024, 2-(5-bromo-2H-indazol-2-yl)-N-hydroxy-3-phenylpropanamide]",,> 500
"O=C(NO)C(Cc1ccccc1)n1nc2ccc(-c3ccccc3)cc2c1C#CC1CC1 (centres unmarked) [Compound I-0025, 2-[3-(Cyclopropylethynyl)-5-phenyl-2H-indazol-2-yl]-hydroxy-3-phenylpropanamide]",134,50 to 200
"NC(=O)c1ccc(-c2ccc3nn(C(Cc4ccccc4)C(=O)NO)c(C#CC4CC4)c3c2)cc1 (centres unmarked) [Compound I-0026, 4-(3-(cyclopropylethynyl)-2-(1-(hydroxyamino)-1-oxo-3-phenylpropan-2-yl)-2H-indazol-5-yl)benzamide]",,≤ 50
"O=C(NO)C(Cc1ccccc1)n1nc2ccc(-c3c(F)cccc3F)cc2c1C#CC1CC1 (centres unmarked) [Compound I-0027, 2-(3-(cyclopropylethynyl)-5-(2,6-difluorophenyl)-2H-indazol-2-yl)-N-hydroxy-3-phenylpropanamide]",,200 to 500
"Cn1nccc1-c1ccc2nn(C(Cc3ccccc3)C(=O)NO)c(C#CC3CC3)c2c1 (centres unmarked) [Compound I-0028, 2-(3-(cyclopropylethynyl)-5-(1-methyl-1H-pyrazol-5-yl)-2H-indazol-2-yl)-N-hydroxy-3-phenylpropanamide]",,≤ 50
"O=C(NO)C(Cc1ccccc1)n1nc2ccc(-c3ccncc3)cc2c1C#CC1CC1 (centres unmarked) [Compound I-0029, 2-(3-(cyclopropylethynyl)-5-(pyridin-4-yl)-2H-indazol-2-yl)-N-hydroxy-3-phenylpropanamide]",,50 to 200
"O=C(NO)C(Cc1ccccc1)n1nc2ccc(-c3cncnc3)cc2c1C#CC1CC1 (centres unmarked) [Compound I-0030, 2-(3-(cyclopropylethynyl)-5-(pyrimidin-5-yl)-2H-indazol-2-yl)-N-hydroxy-3-phenylpropanamide]",,≤ 50
"COc1ncc(-c2ccc3nn(C(Cc4ccccc4)C(=O)NO)c(C#CC4CC4)c3c2)cn1 (centres unmarked) [Compound I-0031, 2-(3-(cyclopropylethynyl)-5-(2-methoxypyrimidin-5-yl)-2H-indazol-2-yl)-N-hydroxy-3-phenylpropanamide]",,≤ 50
"Cc1ccc2nn(C(Cc3ccccc3)C(=O)NO)c(C#CC3CC3)c2c1 (centres unmarked) [Compound I-0032, 2-(3-(cyclopropylethynyl)-5-methyl-2H-indazol-2-yl)-N-hydroxy-3-phenylpropanamide]",,≤ 50
"N/C(=N\O)c1ccc(-c2ccc3nn(C(Cc4ccccc4)C(=O)NO)cc3c2)cc1 (centres unmarked) [Compound I-0033, (Z)-N-hydroxy-2-(5-(4-(N′-hydroxy-carbamimidoyl)phen-yl)-2H-indazol-2-yl)-3-phenylpropanamide]",,50 to 200
"Cn1nccc1-c1ccc2nn(C(Cc3ccccc3)C(=O)NO)cc2c1 (centres unmarked) [Compound I-0034, N-hydroxy-2-(5-(1-methyl-1H-pyrazol-5-yl)-2H-indazol-2-yl)-3-phenylpropanamide]",,200 to 500
"COc1ncc(-c2ccc3nn(C(Cc4ccccc4)C(=O)NO)cc3c2)cn1 (centres unmarked) [Compound I-0035, N-hydroxy-2-(5-(2-methoxypyrimidin-5-yl)-2H-indazol-2-yl)-3-phenylpropanamide]",,200 to 500
"O=C(NO)C(Cc1ccccc1)n1cc2cc(-c3ccccc3)ccc2n1 (centres unmarked) [Compound I-0036, N-hydroxy-3-phenyl-2-(5-phenyl-2H-indazol-2-yl)propanamide]",,> 500
"O=C(NO)C(Cc1ccccc1)n1cc2ccc(F)cc2n1 (centres unmarked) [Compound I-0037, 2-(6-fluoro-2H-indazol-2-yl)-N-hydroxy-3-phenylpropanamide]",,> 500
"O=C(NO)C(Cc1ccccc1)n1cc2ccc(C(F)(F)F)cc2n1 (centres unmarked) [Compound I-0038, N-hydroxy-3-phenyl-2-(6-(trifluoromethyl)-2H-indazol-2-yl)propanamide]",,> 500
